In patent US20100035868A1, “METHODS OF TREATMENT OF UTERINE PATHOLOGICAL CONDITIONS” (MEDICAL RESEARCH COUNCIL, priority 2001, published 2010):
Where two headings read alike, the source gives them in different places.

Experiments:
COX-2 = biological target: T1, COX-2 (Homo sapiens, UniProt P35354); details: cited from earlier work
T1 sequence (P35354 18-604): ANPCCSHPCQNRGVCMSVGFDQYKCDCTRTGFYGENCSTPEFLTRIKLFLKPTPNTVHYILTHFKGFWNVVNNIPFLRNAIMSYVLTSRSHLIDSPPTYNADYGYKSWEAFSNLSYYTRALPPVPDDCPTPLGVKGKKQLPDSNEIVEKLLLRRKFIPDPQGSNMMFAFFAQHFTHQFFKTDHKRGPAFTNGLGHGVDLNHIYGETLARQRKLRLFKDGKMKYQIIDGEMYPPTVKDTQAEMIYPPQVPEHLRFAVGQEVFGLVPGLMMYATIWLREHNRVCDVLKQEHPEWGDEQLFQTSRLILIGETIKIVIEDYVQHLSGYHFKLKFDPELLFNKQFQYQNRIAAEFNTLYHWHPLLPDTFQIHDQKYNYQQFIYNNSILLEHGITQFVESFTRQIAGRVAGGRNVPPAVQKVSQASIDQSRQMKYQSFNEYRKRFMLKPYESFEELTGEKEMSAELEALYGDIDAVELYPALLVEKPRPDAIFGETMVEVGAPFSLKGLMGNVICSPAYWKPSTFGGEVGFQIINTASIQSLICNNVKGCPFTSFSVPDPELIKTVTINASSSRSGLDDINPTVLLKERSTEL

EP2/EP4 receptors [1] = assay: cAMP generation in cultured normal secretory phase endometrium after PGE2 stimulation; format: cell-based, human; details: normal secretory phase endometrium (n=6), 300 nM PGE2 for 5 min, IBMX 1 mM; treated/untreated
Procedure: (§1) In vitro culture and cAMP measurement. Endometrial tumour tissue (n=6; two well, two moderately and two poorly differentiated adenocarcinomas) and normal secretory phase endometrium (n=6) were minced finely with scissors and incubated in 2 ml RPMI (Sigma) medium containing 10% fetal calf serum, 0.3 mg/ml L-glutamine, 100 IU penicillin, 100 μg streptomycin and 3 μg/ml indomethacin, for 1.5 hrs at 37C in humidified 5% CO2. Thereafter samples were incubated in the same medium containing IBMX (Sigma) to a final concentration of 1 mM for 30 min at 37C and then stimulated for 5 min with 300 nM PGE2. Control treatments received no PGE2. Tissue was harvested by centrifugation at 2000 g. The supernatant was discarded and the tissue homogenised in 0.1 M HCl. cAMP concentration was quantified by ELISA using a cAMP kit (Biomol; Affiniti, Exeter, UK) and normalised to protein concentration of the homogenate. Protein concentrations were determined using protein assay kits (Bio-Rad, Hemel Hempstead, UK). The data are presented as fold induction of cAMP following treatment with PGE2. Fold induction was calculated by dividing cAMP values for the PGE2-treated samples by the value for the untreated sample.

EP2/EP4 receptors [2] = assay: cAMP generation in cultured endometrial adenocarcinoma tissue after PGE2 stimulation; format: cell-based, human; details: endometrial adenocarcinoma tissue (n=6), 300 nM PGE2 for 5 min, IBMX 1 mM; treated/untreated
Procedure: as §1

SMILES: CS(=O)(=O)Nc1ccc([N+](=O)[O-])cc1Oc1ccccc1 [Nimesulide, N-(4-nitro-2-phenoxyphenyl)methane sulfonamide]
- more specific for COX-2 inhibition than for COX-1 inhibition (COX-2): 100 fold

SMILES: CCCCC[C@H](O)/C=C/[C@H]1[C@H](O)CC(=O)[C@@H]1C/C=C\CCCC(=O)O [PGE2, prostaglandin E2]
- fold induction of cAMP generation in response to PGE2 (EP2/EP4 receptors [1]): 1.15±0.05
- fold induction of cAMP generation in response to PGE2 (EP2/EP4 receptors [2]): 3.42±0.46

SMILES: CS(=O)(=O)Nc1cc2c(cc1Sc1ccc(F)cc1F)C(=O)CC2 [L 475 L337]
- more specific for COX-2 inhibition than for COX-1 inhibition (COX-2; COX-2 versus COX-1): 500 fold
